Results taken from patent US20040138826A1, “Experimental design and data analytical methods for detecting and characterizing interactions and interaction thresholds on fixed ratio rays of polychemical mixtures and subsets thereof” (priority 2002, published 2004).
Several values for one entry are separate records, joined by “and”; a condition that tells them apart may be missing. Equal entries are not always repeated. Entries after “also recorded” stand apart in the source; their conditions may differ. Where two headings read alike, the source gives them in different places.

Tests used:
healthy adult rats = details: for Mean Motor Activity Response / Threshold Estimate: rats; for Mean Motor Activity Response: single chemical; for Threshold Estimate: dose threshold for motor activity, threshold additivity model, SAR analysis
From the text: To motivate the use of these fixed-ratio mixture ray designs consider a study which examines exposure to environmentally relevant pesticides. The OP pesticides chosen for study, based on usage patterns (i.e. pesticides used on same or similar crops) and market share (i.e. highest volume pesticides), were acephate, diazinon, chlorpyrifos, dimethoate, and malathion. Motor activity, a count of the number of passes made across a central area, was used to assess toxicity in healthy adult rats. A full five-pesticide fixed-ratio ray, given by (0.040:0.002:0.031:0.102:0.825) for (acephate:diazinon:chlorpyrifos:dimethoate:malathion), was chosen based on relative dietary exposure estimates of each chemical as projected by the U.S. EPA Dietary Exposure Evaluation Model (DEEM).
Single chemical data were collected approximately 18 months prior to the data along the full fixed-ration ray.
Fixed-ratio ray designs were chosen to study interactions among combinations of multiple pesticides. The pesticides chosen for these studies, based on usage patterns (i.e., pesticides used on the same or similar crops) and market share (i.e., highest volume pesticides), were acephate, diazinon, chlorpyrifos, dimethoate, and malathion. Motor activity, a count of the number of passes made across a central area, was chosen to assess the toxicity of these pesticides in healthy adult rats. The fixed-ratio ray under study was chosen based on the relative dietary exposure estimates of each chemical as projected by the U.S. EPA Dietary Exposure Evaluation Model (DEEM) and is given by (0.040:0.002:0.031:0.102:0.825) for acephate, diazinon, chlorpyrifos, dimethoate, and malathion respectively.
The five-pesticide study described in the introduction is used to illustrate the sample size and power methods developed in Section 3. Due to the high potential of aggregate exposure to OP pesticides, researchers were initially interested in testing the hypothesis of additivity, given in (5), along the full five-pesticide fixed-ratio ray, given by (0.040:0.002:0.031:0.102:0.825) for ([…]), that represents relative dietary exposure estimates. Single chemical data were collected and used to estimate an additivity model along the ray (analysis not shown). Since, the motor activity response is a count variable it was assumed that V(m)=m and the log link function (McCullagh and Nelder, 1989) was used to fit the generalized linear additivity model described in Section 2. […] Eighty-six animals were considered. Fourteen animals were evaluated in the control group. Twelve animals each were evaluated at 10, 55, 100, 200, 300, and 450 mg/kg. Summary statistics for the single chemical and mixture data are provided in the appendix.
The five-pesticide study described in the introduction is used to illustrate the design methodology developed in the following sections. Due to the high potential for aggregate exposure to OP pesticides, researchers were initially interested in testing the hypothesis of additivity, given in (4), along the full five-pesticide fixed-ratio ray, given by (0.040:0.002:0.031:0.102:0.825) for (acephate:diazinon:chlorpyrifos:dimethoate:malathion). Since motor activity response is a count variable, it was assumed that V(μ)=μ and the log link function (McCullagh and Nelder, 1989) was used to fit the generalized linear additivity model given in (1). […] Eighty-six animals were considered. Fourteen animals were evaluated in the control group. Twelve animals each were evaluated at 10, 55, 100, 200, 300, and 450 mg/kg.

rats = details: for effect when given alone on gait abnormality: single chemical data, rats
From the text: The endpoint of interest is neurotoxicity in rats as measured by a gait score dichotomized to indicate presence or absence of a gait abnormality (i.e., incoordination, loss of balance, etc.). The fixed-ratio ray under study was chosen based on the relative dietary exposure estimates of each chemical as projected by the U.S. EPA Dietary Exposure Evaluation Model (DEEM) and is given by (0.040:0.002:0.031:0.825:0.102) for ACE, DIA, CPF, MAL, DIM, respectively. […] (Note: Such a strategy can be extended for identifying the impact of the unidentified fraction in a complex mixture.)
The biological endpoint of interest is an indicator of neurotoxicity based on evidence of the presence or absence of a gait abnormality (Moser, 1995). In order to appropriately constrain the probability of a response to be between 0 and 1, a logit link function was used, i.e., g(μ)=log(μ/(1−μ)). It was assumed throughout that the variance changes as a binomial random variable such that Var(Y)=τμ(1−μ) (e.g., McCullagh and Nelder, 1989).
The resulting mixture experiment consisted of a vehicle control (n=14), ‘positive controls’ for ACE alone (6 and 30 mg/kg; n=6, 14, respectively), CPF alone (10, 20, 30 mg/kg; n=6, 8, 6, respectively), DIAZ alone (50 and 125 mg/kg; n=6, 14, respectively), MAL alone (350 mg/kg; n=14), DIM alone (10, 25, 50 mg/kg; n=6, 8, 6, respectively), and six total dose mixture concentrations (10, 55, 100, 200, 300 and 450 mg/kg; n=12 rats per dose group for a total of 72 rats exposed to a mixture of the chemicals) at a fixed mixing ratio ray of (0.040:0.002:0.031:0.825:0.102) for (ACE:DIA:CPF:MAL:DIM). Similarly, the design for a second fixed-ratio ray was based on a reduced number of the pesticides (omitting MAL) with the remaining pesticides at the same relative proportions as in the ‘full’ mixture study. The experiment consisted of a vehicle control (n=8), positive controls (n=8 per group) for ACE (30 mg/kg), CPF (20 mg/kg), DIA (125 mg/kg), and DIM (25 mg/kg), and six total dose mixture concentrations (1.75, 9.6, 17.5, 35, 52.5, and 78.8 mg/kg; n=12 rats per dose group) at a fixed mixing ratio ray of (0.229:0.011:0.177:0.583) for (ACE:DIA:CPF:DIM). Casey et al (2003a,b) describe the motor activity data in the mixture of these five pesticides.

Row | SMILES | Threshold Estimate (healthy adult rats) [mg/kg] | Mean Motor Activity Response (healthy adult rats; dose 5 mg/kg) | Mean Motor Activity Response (healthy adult rats; dose 25 mg/kg) | Mean Motor Activity Response (healthy adult rats; dose 50 mg/kg) | Mean Motor Activity Response (healthy adult rats; dose 75 mg/kg) | effect when given alone on gait abnormality (rats) | Mean Motor Activity Response (healthy adult rats; dose 10 mg/kg) | Mean Motor Activity Response (healthy adult rats; dose 30 mg/kg) | further results
1 | CCOC(=O)CC(SP(=S)(OC)OC)C(=O)OCC (centres unmarked) [Malathion, malathion] |  |  |  |  |  |  |  |  | effect of malathion on the mixture, motor activity (healthy adult rats; SAR method, full vs reduced ray, p-value 0.068): marginal evidence that malathion has an effect on the mixture; Mean Motor Activity Response (healthy adult rats; dose 100 mg/kg): 201.5; Mean Motor Activity Response (healthy adult rats; dose 500 mg/kg): 203.75; effect of MAL on the mixture, gait abnormality (rats; adjusted comparison of full and reduced rays, listed as MAL): significantly (p=0.016) changes the shape of the dose response curve in the full ray; also recorded: interacts with at least some or all of the other four pesticides; also recorded: interacts with the other pesticides; effect when given alone on gait abnormality (rats; listed as MAL): not dose responsive
2 | CCOP(=S)(OCC)Oc1cc(C)nc(C(C)C)n1 [Diazinon, diazinon] | 25.0 | 190.88 | 215.56 | 183.13 | 165.69 | significant effect on a gait abnormality |  |  | Mean Motor Activity Response (healthy adult rats; dose 125 mg/kg): 152.00; Mean Motor Activity Response (healthy adult rats; dose 150 mg/kg): 76.5; Mean Motor Activity Response (healthy adult rats; dose 250 mg/kg): 61.25
3 | COP(=O)(NC(C)=O)SC (centres unmarked) [Acephate, acephate] | 6.30 |  |  |  |  | significant effect on a gait abnormality | 165.88 | 108.75 | Mean Motor Activity Response (healthy adult rats; dose 3 mg/kg): 200.13; Mean Motor Activity Response (healthy adult rats; dose 60 mg/kg): 58.25; Mean Motor Activity Response (healthy adult rats; dose 120 mg/kg): 33.25
4 | CNC(=O)CSP(=S)(OC)OC [Dimethoate, dimethoate] | 8.72 | 188.25 | 107.75 | 103.75 | 101.50 | significant effect on a gait abnormality | 188.63 |  | 
5 | CCOP(=S)(OCC)Oc1nc(Cl)c(Cl)cc1Cl [Chlorpyrifos, chlorpyrifos] | 4.69 | 213.37 | 162.00 | 49.44 and 56.38 |  | significant effect on a gait abnormality | 178.31 and 172.13 | 80.13 | Mean Motor Activity Response (healthy adult rats; dose 1 mg/kg): 213.13; Mean Motor Activity Response (healthy adult rats; dose 2 mg/kg): 192.75; Mean Motor Activity Response (healthy adult rats; dose 20 mg/kg): 157.13
